pIC50: −log10 of the molar value. Entries after “also recorded” stand apart in the source; their conditions may differ.
Tests used:
[1] = system: human pancreatic cancer cell Capan-1; experiment: Subcutaneous xenograft of human pancreatic cancer cell Capan-1 in a nude mouse (Experimental example 5); type: in vivo; conditions: once every 3 days, 6 times
Description: According to methods similar to those in sections 1 to 2 in Experimental example 2, pancreatic cancer cell Capan-1 was cultured as a monolayer in vitro, and inoculated, and the animals were randomized into groups.
Samples were prepared as described in Experimental example 2.
Mice bearing a tumor having a volume of 100-200 mm^3 were selected, and randomized into 7 groups (7 mice per group).
(§1) For statistical calculations of the test indexes, please refer to Experimental example 2.

[2] = Oral toxicity test in mice (administration for 7 days); type: in vivo; conditions: once per day for 7 days
Description: Normal Male and female Kunming mice (SPF grade, obtained from Laboratory Animal Center in Sichuan Academy of Chinese Medicine Science) were randomized by weight into groups. The test compound and vehicle control were formulated according to Experimental example 2. The dosage volume was 10 mL/kg, and the administration was performed by oral gavage, once per day for 7 consecutive days.

[3] = system: colorectal cancer cell HCT-15; experiment: CCK-8 inhibition of proliferation, HCT-15; type: cell-based, human
Description: (§2) The tumor cell lines employed in the present experiment were gastric cancer cell NCI-N87 (obtained from Guangzhou Jennio Biological Technology Co., Ltd.), colorectal cancer cell HCT-116 (obtained from Chengdu Center for Safety Evaluation of Drugs), colorectal cancer cell HCT-15 and pancreatic cancer cell BxPC-3 (both obtained from ATCC, US).
(§3) Each of the cell lines is cultured in a corresponding culture medium (RPMI-1640, IMDM and L-15 culture medium (manufacturer: Gibco)) supplemented with 10% heat inactivated Fetal Bovine Serum (manufacturer: Sigma), in an incubator at 37° C. and 5% CO2.
(§4) For each type of tumor cells, a blank group, a vehicle group (containing 1‰ DMSO) and 8 groups with a test compound at concentrations of 5 nM, 10 nM, 50 nM, 100 nM, 500 nM, 1000 nM, 5000 nM, and 10000 nM (with each concentration in triplicate) were set.
(§5) Appropriate amounts of test compounds were weighted, and dissolved in DMSO (cell culture grade, Sigma) to prepare stock solutions of various concentration gradients according to desired concentrations. During incubation, they were diluted by 1000 times as necessary, and incubation solutions with various drug concentrations were prepared (compound stock solution:medium containing 2% FBS=1:1000).
(§6) The experiment was performed according to a CCK-8 method as described below. Cancer cells to be tested were seeded in a 96-well culture plate at a concentration of 5˜10×10^4/mL (100 μL/well), followed by incubation at 37° C. and 5% CO2 for 24 h. The medium was discarded, and incubation solutions with different drug concentrations (200 μL) were respectively added to each well, and the cells were further incubated for 72 h. After the incubation, a CCK-8 solution (20 μL/well) was added to each well to be tested, and the incubation was continued for 4 h in the incubator. OD values at two wavelengths (Detection wavelength: 450 nm, and reference wavelength: 650 nm) were determined on a multifunctional fully-automatic microplate reader.
(§7) The inhibitory rate of tumor cell growth was calculated according to the following formula: Inhibitory rate=[(ODvehicle−ODblank)−(ODdrug−ODblank)]/(ODvehicle−ODblank)*100%
(§8) Based on the inhibitory rate, a concentration-inhibitory rate curve was fit using GraphPad prism 5.0 software, and IC50 was calculated.

[4] = system: colorectal cancer cell HCT-116; experiment: CCK-8 inhibition of proliferation, HCT-116; type: cell-based, human
Description: as §2, §3
For each type of tumor cells, a blank group, a vehicle group (containing 1‰ DMSO) and 8 groups with a test compound at concentrations of 5 nM, 10 nM, 50 nM, 100 nM, 500 nM, 1000 nM, 5000 nM, and 10000 nM (with each concentration in triplicate) were set. […]
The experiment was performed according to a CCK-8 method as described below. […] OD values at two wavelengths (Detection wavelength: 450 nm, and reference wavelength: 650 nm) were determined on a multifunctional fully-automatic microplate reader.
as §7, §8

[5] = system: pancreatic cancer cell BxPC-3; experiment: CCK-8 inhibition of proliferation, BxPC-3; type: cell-based, human
Description: as §2, §3, §4, §5, §6, §7, §8

[6] = system: gastric cancer cell NCI-N87; experiment: CCK-8 inhibition of proliferation, NCI-N87; type: cell-based, human
Description: as §2, §3, §4, §5, §6, §7, §8

[7] = system: human pancreatic cancer cell BxPC-3; experiment: Subcutaneous xenograft of human pancreatic cancer cell BxPC-3 in a nude mouse (Experimental example 3); type: in vivo; conditions: once every 3 days, 4 times
Description: According to methods similar to those in sections 1 to 2 in Experimental example 2, pancreatic cancer cell BxPC-3 was cultured as a monolayer in vitro, and inoculated, and the animals were randomized into groups.
An appropriate amount of the test compound was weighted out, and added in DMSO. The 10% solution of SE-β-CD was then added according to the desired concentration, and the final concentration of DMSO was adjusted to 2.5%. A gemcitabine injection (a positive control) was diluted to the desired concentration with physiological saline. A 10% solution of SE-β-CD containing 2.5% DMSO was prepared as a vehicle control.
Mice bearing a tumor having a volume of 100-200 mm^3 were selected, and randomized into 14 groups (7 mice per group). The dosing volume was 20 mL/kg, and the administration (intravenous administration (i.v.)) was performed once every 3 days, for 4 times in total.
as §1

[8] = system: human pancreatic cancer cell BxPC-3; experiment: Subcutaneous xenograft of human pancreatic cancer cell BxPC-3 in a nude mouse (Experimental example 4); type: in vivo
Description: According to methods similar to those in sections 1 to 3 in Experimental example 2, pancreatic cancer cell BxPC-3 was cultured as a monolayer in vitro, and inoculated; the animals were randomized into groups; and samples were prepared.
Mice bearing a tumor having a volume of 80-250 mm^3 were selected, and randomized into 6 groups (8 mice per group). The dosing volume was 10 mL/kg.
as §1
The test results obtained by administrating (intravenous administration (i.v.) or oral administration (p.o.)) once a week for 3 weeks are shown in table 7-2.

[9] = system: gastric cancer cell NCI-N87; experiment: Subcutaneous xenograft of gastric cancer cell NCI-N87 in nude mice (Experimental example 2); type: in vivo; conditions: for TGI (%): twice a week for 3 weeks; for Body weight change: 14 days after last administration vs beginning; for Tumor regression, CR (complete tumor regression): animals out of 8
Description: This experimental example was used for the evaluation of the effectiveness of the compounds of the present invention in inhibiting the proliferation of a subcutaneous xenograft of human tumor cells via various routes of administration.
Gastric cancer cell NCI-N87 and colorectal cancer cell HCT-116 were cultured as a monolayer in vitro, and the culture conditions were RPMI-1640 culture medium supplemented with 10% heat inactivated Fetal Bovine Serum, and incubation in an incubator at 37° C. and 5% CO2. The cells were subcultured by treatment with trypsin-EDTA digestion.
The tumor cells were respectively inoculated into BALB/c nude mice (SPF grade, female, 16-18 g per mouse, about 6 to 8 weeks old, Beijing Vital River Laboratory Animal Technology Co., Ltd.).
Each nude mouse was inoculated with about 2.5×10^6 HCT-116 tumor cells or about 3×10^6 NCI-N87 tumor cells (suspended in 0.1 ml PBS) subcutaneously into the underarm of the right flank. After the inoculated tumor reached a size in the range of about 100-200 mm^3, nude mice bearing a tumor that is too small (smaller than 100 mm^3) or too big (bigger than 200 mm^3) were removed from the study, and the remaining ones were randomized into groups.
Sulfobutyl ether-β-cyclodextrin (SE-β-CD) was formulated with physiological saline to form a 10% solution, which was then filtered through a 0.22 μm sterile filter for later use.
An appropriate amount of the test compound was weighted, and added in DMSO. The resultant solution was vortexed to uniformity, and the 10% solution of SE-β-CD was added according to the desired concentration. The solution was vortexed to uniformity, and the final concentration of DMSO was adjusted to 5%. A gemcitabine injection (a positive control) was directly diluted to the desired concentration with physiological saline. A 10% solution of SE-β-CD containing 5% DMSO was prepared as a vehicle control.
Mice bearing a tumor having a volume of about 100-200 mm^3 were selected, and randomized into 5 groups (8 mice per group). The dosing volume was 10 mL/kg, and the administration (intravenous administration (i.v.) or oral administration (p.o.)) was performed twice a week for 3 weeks. The tumor volume and body weight were measured twice a week after the administration, and the mortality of animals was observed every day.
The diameter of a tumor was measured, and the tumor volume was calculated according to the following formula: V=0.5a×b^2, wherein a and b respectively represent the major and minor diameters of a tumor. The anti-tumor effect was evaluated by the tumor growth inhibition (TGI) (%). TGI (%)=[1−(VT-end−VT-start)/(VC-end−VC-start)]*100%
The body weight of an animal was measured twice a week.

[10] = Intravenous toxicity test in mice (administration for 7 days); type: in vivo
Source text: This test was used to investigate the toxic reactions after intravenous administration of compound C8 to normal KM mice for 7 consecutive days.
KM mice passing the quarantine control were randomized into 4 groups (3 mice/gender/group). The test compound and vehicle control were formulated according to Experimental example 2. The mortality, appearance, behavior, mental status, secretion and excreta etc. of the animals were observed every day for 7 consecutive days after the administration, and the animals were anatomized on day 8.

[11] = 115.38 μmol/kg i.v., 7 days, anatomy on day 8

Question: What does the source list for `CC(C)OC(=O)[C@H](C)N[P@](=O)(OC[C@H]1S[C@@H](n2ccc(N)nc2=O)[C@@H](F)[C@@H]1O)Oc1ccccc1` [Compound C8, (S)-isopropyl 2-(((S)-(((2R,3S,4S,5R)-5-(4-amino-2-oxopyrimidin-1(2H)-yl)-4-fluoro-3-hydroxytetrahydrothiophen-2-yl)methoxy)(phenoxy)phosphoryl)amino)propanoate]?
Answer: TGI (%) ([1]; 0.02 mmol/kg p.o.): 25.6%; TGI (%) ([1]; 0.06 mmol/kg i.v.): 81.8%; TGI (%) ([1]; 0.06 mmol/kg p.o.): 79.1%; TGI (%) ([1]; 0.19 mmol/kg p.o.): 138.5%; dosage at which death of animals occurred ([2]; oral gavage): ~115 µmol/kg; Results: mortality (3 Male + 3 Female) ([2]; ~77 μmol/kg oral gavage): survived; Results: clinical symptoms (3 Male + 3 Female) ([2]; ~6 mg/kg (~12 μmol/kg) oral gavage): No abnormal symptoms; Results: clinical symptoms (3 Male + 3 Female) ([2]; ~20 mg/kg (~38 μmol/kg) oral gavage): No abnormal symptoms; inhibitory effect on colorectal cancer cell HCT-15 (in words) ([3]; FIG. 1: 5-10000 nM): potent inhibitory effects; also recorded: excellent inhibitory effects; pIC50 ([3]; Homo sapiens, HCT-15, CCK-8, 72 h incubation): 5.71; inhibitory effect on colorectal cancer cell HCT-116 (in words) ([4]; FIG. 1: 5-10000 nM): potent inhibitory effects; also recorded: excellent inhibitory effects; pIC50 ([4]; Homo sapiens, HCT-116, CCK-8, 72 h incubation): 6.31; inhibitory effect on pancreatic cancer cell BxPC-3 (in words) ([5]; FIG. 1: 5-10000 nM): potent inhibitory effects; also recorded: excellent inhibitory effects; pIC50 ([5]; Homo sapiens, BXPC-3, CCK-8, 72 h incubation): 6.15; inhibitory effect on gastric cancer cell NCI-N87 (in words) ([6]; FIG. 1: 5-10000 nM): potent inhibitory effects; also recorded: excellent inhibitory effects; pIC50 ([6]; Homo sapiens, NCI-N87, CCK-8, 72 h incubation): 6.32; TGI (%) ([7]; 0.04 mmol/kg i.v.): 26.9%; TGI (%) ([7]; 0.12 mmol/kg i.v.): 74.9%; TGI (%) ([7]; 0.24 mmol/kg i.v.): 82.9%; TGI (%) ([8]; 0.06 mmol/kg p.o., twice a week for 3 weeks): 47.7%; TGI (%) ([8]; 0.12 mmol/kg p.o., twice a week for 3 weeks): 53.2%; TGI (%) ([8]; 0.23 mmol/kg p.o., once a week for 3 weeks): 51.0%; TGI (%) ([9]; 190 μmol/kg i.v.): 109%; Body weight change ([9]; 190 μmol/kg i.v.): +8.1%; Tumor regression, CR (complete tumor regression) ([9]; 190 μmol/kg i.v.): 8/8 CR; TGI (%) ([9]; 190 μmol/kg p.o.): 110%; Body weight change ([9]; 190 μmol/kg p.o.): +8.1%; Tumor regression, CR (complete tumor regression) ([9]; 190 μmol/kg p.o.): 8/8 CR; body weight increase on day 8, female mice ([10]; 115.38 μmol/kg i.v., 7 days): 13.1%; body weight increase on day 8, male mice ([10]; 115.38 μmol/kg i.v., 7 days): 26.7%; leukocyte count decrease vs vehicle group, female [10, 11]: 45%; leukocyte count decrease vs vehicle group, male [10, 11]: 49%; platelet count decrease vs vehicle group, female [10, 11]: 43%; platelet count decrease vs vehicle group, male [10, 11]: 39%; symptoms observed on day 8 ([10]; compound C8 60.9 mg/kg (115.38 μmol/kg) i.v., 7 consecutive days): no relevant abnormalities were observed

From patent publication US10662214B2, “Compound of 4′-thionucleoside, as well as preparation method therefor, pharmaceutical composition thereof and application thereof” (Sichuan Kelun-Biotech Biopharmaceutical Co., Ltd., priority 2015, dated 2020)
